According to patent US20120107277A1, “USE OF THE COMBINATION OF TERIFLUNOMIDE AND INTERFERON BETA FOR TREATING MULTIPLE SCLEROSIS” (SANOFI-AVENTIS U.S LLC, priority 2009, published 2012):

Key:
Type in all cases: in vivo, human
[1] = test system: relapsing-remitting multiple sclerosis patient; assay: MS relapse, 24-week add-on study (Example 1); settings: 24 weeks, ITT
Experimental: (§1) A placebo-controlled, double-blinded, randomized, 3-parallel group stratified study was conducted in relapsing-remitting multiple sclerosis patient who were concurrently on a stable dose of interferon beta. The dose level of interferon beta was defined as follows: • Low dose: AVONEX® (interferon beta-1a) 30 mcg once a week intramuscularly, or REBIF® (interferon beta-1a) 22 mcg three times per week subcutaneously. • High dose: REBIF® 44 mcg three times per week subcutaneously, or BETASERON® (interferon beta-1b) 0.25 mg every other day subcutaneously.
(§2) Around 40 patients were treated in each treatment group (placebo: 41, 7 mg: 37, and 14 mg: 38). A third of patients in each group were treated with low dose interferon beta 1a. […] The mean age of the study population was 40.1 years. […] The base line Expanded Disability Status Scale (EDSS) score was similar between treatment groups (around 2.5).
(§3) Safety was evaluated from Treatment Emergent Adverse Event (TEAE), physical examination and laboratory data (e.g. Liver Function Test, every 2-8 weeks), ECG and abdominal ultrasound (24-weeks). Brain MRI (magnetic resonance image) activity, including T1-gadolinium (T1-Gd) with central reading were recorded every 8-week. Relapses were recorded and EDSS was performed at 24-week.

[2] = test system: relapsing-remitting multiple sclerosis patient; assay: Brain MRI Gd-enhancing T1-lesions, 48-week double-blind treatment period (Example 2); settings: for Patients with >=1 Gd-enhancing T1-lesions post-baseline, No (% of patients; free of T1-Gd lesions): 48 weeks, ITT; for Relative risk reduction in the number of T1-Gd lesions compared with placebo added to IFN-beta / Relative reduction of T1-Gd lesion volume compared to placebo: 48 week; for Relative risk reduction in the number of T1-Gd lesions compared with placebo added to IFN-beta: adjusted
Experimental: as §1
(§4) Design/Methods: 86 of the 116 patients that were randomized to treatment (placebo: 41; 7 mg: 37; 14 mg: 38) for the first 6-months in Example 1 completed this 6-month period and accepted to continue medication for an additional 6-month period (placebo: 31, 7 mg: 28, 14 mg: 27). Safety was evaluated from TEAE, physical exam (every 6 weeks), laboratory data (every 6 weeks), ECG (at the close-out visit), pancreatic ultrasound (at the close-out visit) and brain MRI (at the close-out visit). Relapses were recorded and EDSS was performed every 6-weeks. Annualized relapse rates (ARR) were estimated by a Poisson model adjusted to IFN strata and to geographical regions. The following results report the entire 48-week double-blind treatment period.

[3] = test system: relapsing-remitting multiple sclerosis patient; assay: Safety (TEAE, laboratory data), 24-week add-on study (Example 1); settings: 24 weeks
Experimental: as §1, §2, §3

[4] = test system: relapsing-remitting multiple sclerosis patient; assay: Safety (TEAE, laboratory data), 48-week double-blind treatment period (Example 2); settings: 48 weeks
Experimental: as §1, §4

[5] = test system: relapsing-remitting multiple sclerosis patient; assay: MS relapse, 48-week double-blind treatment period (Example 2)
Experimental: as §1, §4

[6] = test system: relapsing-remitting multiple sclerosis patient; assay: Brain MRI Gd-enhancing T1-lesions, 24-week add-on study (Example 1); settings: for Patients with >=1 Gd-enhancing T1-lesions post-baseline, No (% of patients; free of T1-Gd lesions): 24 weeks, ITT; for Relative risk reduction in the number of T1-Gd lesions compared with placebo added to IFN-beta / Relative reduction of T1-Gd lesion volume compared to placebo: 24 week; for Relative risk reduction in the number of T1-Gd lesions compared with placebo added to IFN-beta: adjusted
Experimental: as §1, §2, §3

[7] = 14 mg teriflunomide in addition to stable-dose IFN-beta, p<0.0001
[8] = 7 mg teriflunomide added to stable-dose interferon beta
[9] = 14 mg teriflunomide added to stable-dose interferon beta
[10] = 7 mg teriflunomide added to stable-dose IFN-beta
[11] = 14 mg teriflunomide added to stable-dose IFN-beta

C/C(O)=C(\C#N)C(=O)Nc1ccc(C(F)(F)F)cc1 [teriflunomide, (Z)-2-cyano-3-hydroxy-but-2-enoic acid-(4′-trifluoromethylphenyl)-amide]
Total number of relapses ([1]; 7 mg teri + IFN-β, 16.4 patient-years followed): 5 | Total number of relapses ([1]; 14 mg teri + IFN-β, 17.3 patient-years followed): 2 | Patients with >=1 Gd-enhancing T1-lesions post-baseline, No (% of patients; free of T1-Gd lesions) ([2]; 7 mg teri + IFN-β): 69.4% | Relative risk reduction in the number of T1-Gd lesions compared with placebo added to IFN-beta ([2]; 7 mg teriflunomide in addition to stable-dose IFN-beta, p=0.0005): 84.6% | Relative reduction of T1-Gd lesion volume compared to placebo ([2]; 7 mg teriflunomide in addition to stable-dose IFN-beta, p=0.1104): 72.1% | Patients with >=1 Gd-enhancing T1-lesions post-baseline, No (% of patients; free of T1-Gd lesions) ([2]; 14 mg teri + IFN-β): 76.3% | Relative risk reduction in the number of T1-Gd lesions compared with placebo added to IFN-beta [2, 7]: 82.8% | Relative reduction of T1-Gd lesion volume compared to placebo ([2]; 14 mg teriflunomide in addition to stable-dose IFN-beta, p=0.0154): 70.6% | Proportion of patients with ALT/SGPT greater than 3xULN [3, 8]: 0% | Proportion of patients with TEAE due to increased ALT/SGPT [3, 8]: 13.5% | Proportion of patients with TEAE potentially related to immunosuppression (white blood cell counts, infections and infestations) [3, 8]: 49% | Upper respiratory tract infections (nasopharyngitis, sinusitis), proportion of patients [3, 8]: 10.8% | Proportion of patients with ALT/SGPT greater than 3xULN [3, 9]: 5.3% | Proportion of patients with TEAE due to increased ALT/SGPT [3, 9]: 28.9% | Proportion of patients with TEAE potentially related to immunosuppression (white blood cell counts, infections and infestations) [3, 9]: 50% | Upper respiratory tract infections (nasopharyngitis, sinusitis), proportion of patients [3, 9]: 23.7% | Concomitant bilirubin increase (with ALT/SGPT increase) ([3]; all groups, 7 mg or 14 mg teriflunomide added to stable-dose interferon beta): no case | Patients with ALT increased above 3ULN without concomitant increase in bilirubin (number) [4, 10]: 1 | TEAE all gastrointestinal disorders [4, 10]: 18.9% | TEAE all type of headaches [4, 10]: 5.4% | TEAE upper respiratory tract infections as a whole [4, 10]: 16.2% | TEAEs that led to treatment discontinuation (number) [4, 10]: 3 | White blood cell counts decreases (number) [4, 10]: 3 | Patients with ALT increased above 3ULN without concomitant increase in bilirubin (number) [4, 11]: 3 | TEAE all gastrointestinal disorders [4, 11]: 31.6% | TEAE all type of headaches [4, 11]: 18.4% | TEAE upper respiratory tract infections as a whole [4, 11]: 23.7% | TEAEs that led to treatment discontinuation (number) [4, 11]: 3 | White blood cell counts decreases (number) [4, 11]: 4 | Reduction in annualized relapse rate compared to IFN-beta ([5]; 7 mg teriflunomide in addition to stable-dose IFN-beta, p=0.43): 32.6% | Reduction in annualized relapse rate compared to IFN-beta ([5]; 14 mg teriflunomide in addition to stable-dose IFN-beta, p=0.11): 57.9% | Patients with >=1 Gd-enhancing T1-lesions post-baseline, No (% of patients; free of T1-Gd lesions) ([6]; 7 mg teri + IFN-β): 69.4% | Relative risk reduction in the number of T1-Gd lesions compared with placebo added to IFN-beta ([6]; 7 mg teriflunomide in addition to stable-dose IFN-beta, p=0.0009): 82.6% | Relative reduction of T1-Gd lesion volume compared to placebo ([6]; 7 mg teriflunomide in addition to stable-dose IFN-beta, p=0.1931): 67.6% | Patients with >=1 Gd-enhancing T1-lesions post-baseline, No (% of patients; free of T1-Gd lesions) ([6]; 14 mg teri + IFN-β): 81.6% | Relative risk reduction in the number of T1-Gd lesions compared with placebo added to IFN-beta [6, 7]: 84.4% | Relative reduction of T1-Gd lesion volume compared to placebo ([6]; 14 mg teriflunomide in addition to stable-dose IFN-beta, p=0.0072): 64.7%
